Measured values from patent US10611771B2, “Pyrazolo [3,4-d] pyrimidine derivative” (WEST CHINA HOSPITAL, SICHUAN UNIVERSITY, priority 2016, dated 2020).
“And” between values parts separate entries of the source, which are not always exact repeats. Equal entries are not always repeated.

Test system: A549 cells
Experiment: MTT detection method, inhibitory effect against A549 cells
Assay type: cell-based
Description: MTT detection method was used, and MTT is a yellow compound and a dye accepting hydrogen ions, and can be used as the respiratory chain in mitochondria of viable cells. Under the action of succinate dehydrogenase and cytochrome C, the tetrazolium ring broke to form blue formanzan crystal, and the formation amount of formanzan crystal was only directly proportional to the viable counts. The formanzan crystal formed by reduction can dissolve in dimethyl sulfoxide (DMSO), and the optical density (OD) value can be determined at 490 nm using ELISA, to reflect the viable counts.
• Lung cancer cell lines: A549 and H1299. • Experimental materials: lung cancer cell lines, instruments and tools for cell culture, MTT, the compound mother liquid (10 mmol/L), and the positive control drug Src inhibitor pp1. 1. Specific Method • (3-1) Cell lines A549 and H1299 were recovered, and when the cells were in good conditions, namely cells grew to about 80% after one passage (i.e. the logarithmic growth phase), the cells were planked (96-well plate). • (3-2) Firstly, cells were collected, and the concentration of cell suspension was adjusted with counting chamber. Cells were seeded in 96-well plate at 1000˜10000 cells/well, and the detailed cell numbers in each well were dependent on the growth rate of different cells and the action time of drugs. A549 cells were seeded at 5000 cells, while H1299 cells were also seeded at 5000 cells, 200 μl for each well (100 μl cell suspension+100 μl drug dilution at different concentration gradient). The edge wells (36) were added 200 μl culture media (for prevention of edge effect). • (3-3) After planking and adding drugs, the plate was treated at 24 h, 48 h, and 72 h, and then for coloration, each well was added 200 μl culture media containing 20 μl MTT solution (5 mg/mL). The plate was continually cultured for 1˜4 hours, the incubation was stopped, and the culture supernatant fluid in each well was carefully absorbed. For suspension cells, the culture supernatant fluid in each well need be centrifuged before drawing. 150 μl DMSO was added to each well, and the plate was shaken on a shaking table for 15˜20 min, to allow the crystals to be completely dissolved. • (3-4) Colorimetry: The colorimetry was performed by ELISA, and the optical absorption value of each well was tested at a wavelength of 490 nm or 570 nm, and the result was recorded. • (3-5) Calculation Inhibition ratio=(the control−the drug)/the control×100% • IC50 (50% inhibitory concentration) can be calculated by spass software based on the inhibitory ratio at different concentration. II. Experimental Results • A549 cells were treated at 4 h, 24 h, 48 h, 72 h, and the drug dose was divided into the light concentration group (10 μm, 25 μm, 40 μm) and the high concentration group (50 μm, 80 μm, 100 μm), that were seeded at 6000 cells/well and 5000 cells/well, respectively, to carry out the experiment.

Cc1ccc(-c2nn(C(C)(C)C)c3ncnc(N)c23)cc1 [PP1, reference compound]
The inhibitory ratio (%) for three parallel assays (4 h, 10 μm): 14.06% and 5.63% and 10.31% | The mean inhibitory ratio (%) (4 h, 10 μm): 10.00% | The mean inhibitory ratio (%) (4 h, 25 μm): 8.44% | The inhibitory ratio (%) for three parallel assays (4 h, 40 μm): 31.88% and 35.00% and 23.44% | The mean inhibitory ratio (%) (4 h, 40 μm): 30.10% | The inhibitory ratio (%) for three parallel assays (4 h, 50 μm): 26.86% and 23.43% and 24.00% | The mean inhibitory ratio (%) (4 h, 50 μm): 24.76% | The inhibitory ratio (%) for three parallel assays (4 h, 80 μm): 32.86% and 31.43% and 30.00% | The mean inhibitory ratio (%) (4 h, 80 μm): 31.43% | The inhibitory ratio (%) for three parallel assays (4 h, 100 μm): 44.00% and 43.43% | The mean inhibitory ratio (%) (4 h, 100 μm): 43.81% | The inhibitory ratio (%) for three parallel assays (24 h, 10 μm): 14.13% and 14.78% and 11.09% | The mean inhibitory ratio (%) (24 h, 10 μm): 13.33% | The inhibitory ratio (%) for three parallel assays (24 h, 25 μm): 49.35% and 47.39% and 48.04% | The mean inhibitory ratio (%) (24 h, 25 μm): 48.26% | The inhibitory ratio (%) for three parallel assays (24 h, 40 μm): 63.91% and 64.13% and 64.35% | The mean inhibitory ratio (%) (24 h, 40 μm): 64.13% | The inhibitory ratio (%) for three parallel assays (24 h, 50 μm): 56.46% and 55.83% and 56.04% | The mean inhibitory ratio (%) (24 h, 50 μm): 56.11% | The inhibitory ratio (%) for three parallel assays (24 h, 80 μm): 74.79% and 72.92% and 73.54% | The mean inhibitory ratio (%) (24 h, 80 μm): 73.75% | The inhibitory ratio (%) for three parallel assays (24 h, 100 μm): 80.63% and 79.58% and 79.17% | The mean inhibitory ratio (%) (24 h, 100 μm): 79.79% | The inhibitory ratio (%) for three parallel assays (48 h, 10 μm): 48.91% and 48.44% and 45.94% | The mean inhibitory ratio (%) (48 h, 10 μm): 47.76% | The inhibitory ratio (%) for three parallel assays (48 h, 25 μm): 66.88% and 67.03% and 66.72% | The mean inhibitory ratio (%) (48 h, 25 μm): 66.88% | The inhibitory ratio (%) for three parallel assays (48 h, 40 μm): 74.53% and 74.22% | The mean inhibitory ratio (%) (48 h, 40 μm): 74.43% | The inhibitory ratio (%) for three parallel assays (48 h, 50 μm): 69.50% and 67.00% and 66.67% | The mean inhibitory ratio (%) (48 h, 50 μm): 67.72% | The inhibitory ratio (%) for three parallel assays (48 h, 80 μm): 81.17% and 80.00% and 80.17% | The mean inhibitory ratio (%) (48 h, 80 μm): 80.44% | The inhibitory ratio (%) for three parallel assays (48 h, 100 μm): 82.50% and 81.33% and 82.33% | The mean inhibitory ratio (%) (48 h, 100 μm): 82.06% | The inhibitory ratio (%) for three parallel assays (72 h, 10 μm): 63.42% and 63.87% and 64.59% | The mean inhibitory ratio (%) (72 h, 10 μm): 63.96% | The inhibitory ratio (%) for three parallel assays (72 h, 25 μm): 83.06% and 82.97% and 83.69% | The mean inhibitory ratio (%) (72 h, 25 μm): 83.24% | The inhibitory ratio (%) for three parallel assays (72 h, 40 μm): 86.76% and 86.13% and 87.66% | The mean inhibitory ratio (%) (72 h, 40 μm): 86.85% | The inhibitory ratio (%) for three parallel assays (72 h, 50 μm): 82.70% and 81.35% and 82.43% | The mean inhibitory ratio (%) (72 h, 50 μm): 82.16% | The inhibitory ratio (%) for three parallel assays (72 h, 80 μm): 85.95% and 86.22% and 86.08% | The mean inhibitory ratio (%) (72 h, 80 μm): 86.08% | The inhibitory ratio (%) for three parallel assays (72 h, 100 μm): 85.41% and 85.68% | The mean inhibitory ratio (%) (72 h, 100 μm): 85.59%
